Reference: PMC8494430, “Development of a fluorogenic ADAMTS-7 substrate” (Journal of Enzyme Inhibition and Medicinal Chemistry, 2021)

Key:
[1] = biological target: T1, ADAMTS-7 (Homo sapiens, UniProt Q9UKP4); test: LTBP4S-A cleavage assay (SDS-PAGE, densitometry); type: biochemical
T1 construct: the recombinant construct ADAMTS7-T8, which lacks the C-terminal PLAC domain; made in house
T1 sequence (Q9UKP4 237-1631 limits assumed): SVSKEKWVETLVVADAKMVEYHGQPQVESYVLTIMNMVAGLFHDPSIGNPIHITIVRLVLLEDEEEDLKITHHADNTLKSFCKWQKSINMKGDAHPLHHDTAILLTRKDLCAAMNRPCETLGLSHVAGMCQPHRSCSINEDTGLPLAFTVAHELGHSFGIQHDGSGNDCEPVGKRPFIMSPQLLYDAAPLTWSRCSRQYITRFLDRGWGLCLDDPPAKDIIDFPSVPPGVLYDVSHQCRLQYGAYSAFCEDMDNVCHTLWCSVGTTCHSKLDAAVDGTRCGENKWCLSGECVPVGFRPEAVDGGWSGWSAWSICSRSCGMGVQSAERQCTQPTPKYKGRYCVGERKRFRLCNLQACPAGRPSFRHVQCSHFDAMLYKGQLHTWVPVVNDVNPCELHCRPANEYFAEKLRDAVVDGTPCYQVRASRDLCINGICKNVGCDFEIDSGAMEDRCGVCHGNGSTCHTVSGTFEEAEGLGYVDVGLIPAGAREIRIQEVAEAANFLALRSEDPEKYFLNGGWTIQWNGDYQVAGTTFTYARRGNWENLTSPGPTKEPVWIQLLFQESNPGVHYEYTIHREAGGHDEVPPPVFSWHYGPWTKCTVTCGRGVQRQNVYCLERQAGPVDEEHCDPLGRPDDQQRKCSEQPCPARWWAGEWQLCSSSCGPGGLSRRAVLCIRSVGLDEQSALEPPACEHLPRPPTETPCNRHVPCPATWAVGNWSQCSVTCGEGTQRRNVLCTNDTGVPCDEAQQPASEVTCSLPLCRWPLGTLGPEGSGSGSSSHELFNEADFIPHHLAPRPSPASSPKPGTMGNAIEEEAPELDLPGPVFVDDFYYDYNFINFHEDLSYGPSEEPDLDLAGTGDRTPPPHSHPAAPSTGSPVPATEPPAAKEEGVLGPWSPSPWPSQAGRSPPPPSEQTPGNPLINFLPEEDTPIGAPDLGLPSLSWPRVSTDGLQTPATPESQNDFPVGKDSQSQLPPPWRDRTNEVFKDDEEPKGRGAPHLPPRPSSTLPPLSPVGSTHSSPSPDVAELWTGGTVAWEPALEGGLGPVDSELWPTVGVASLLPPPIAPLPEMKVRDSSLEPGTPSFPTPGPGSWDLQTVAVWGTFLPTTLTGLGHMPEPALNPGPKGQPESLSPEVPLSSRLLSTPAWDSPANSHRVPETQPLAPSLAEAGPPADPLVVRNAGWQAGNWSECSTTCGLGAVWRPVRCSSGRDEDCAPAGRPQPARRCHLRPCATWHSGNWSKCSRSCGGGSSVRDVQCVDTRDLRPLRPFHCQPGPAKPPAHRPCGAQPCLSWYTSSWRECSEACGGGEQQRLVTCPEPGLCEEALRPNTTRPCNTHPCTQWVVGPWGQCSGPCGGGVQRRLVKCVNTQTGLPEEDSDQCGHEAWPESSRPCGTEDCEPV
Method: LTBP4S-A cleavage assays were performed as before[8] with small modifications. Here, ADAMTS-7 –T8 (19 nM) was pre-incubated either in the absence or presence of the indicated inhibitors for 2 h at 37 °C before addition of […] (5.6 µM). After 17 h, proteolysis was stopped by addition of Bolt^TM LDS Sample Buffer, 5% β-mercaptoethanol, and heating to 95 °C. Samples were frozen at […] before use. For SDS-PAGE analysis, 12% Bis-Tris Plus Gels (ThermoFisher) were used and stained for 6 h with Imperial protein stain (ThermoFisher). Gels were destained overnight in pure water at room temperature on an orbital shaker and scanned for analysis of LTBP4S-A cleavage bands. To accurately determine cleavage inhibition from each inhibitor, inhibition was quantified by densitometry of the bands corresponding to cleavage products using ImageJ software. The data were plotted using GraphPad Prism 7.0.

[2] = Appearance of solution upon dilution of peptide in assay buffer (solubility); type: physicochemical; conditions: 10 mM DMSO stock diluted in assay buffer
Method: The cleavage sites ^193Arg↓Ala^194 and ^195Glu↓Ala^196 were chosen to design the FRET substrate ATS7FP0 (Table 1). This peptide covers residues Ala^188-Ala^198 in LTBP4S and contains a FAM/TAMRA fluorophore/quencher pair. The quencher is covalently linked to the ε amino group of an extra C-terminal lysine residue. Stock solutions were routinely prepared at 10 mM in DMSO and stored at −80 °C. […] This was most likely due to the high content in hydrophobic amino acids of this peptide, which added to the hydrophobicity of the fluorophore/quencher pair. Nevertheless, ATS7FP0 generated fluorescence upon cleavage by ADAMTS-7 (Figure 2(A)). With the aim to improve both solubility and cleavage rate by ADAMTS-7, seven additional peptides were designed using the sequence of ATS7FP0 as a starting point. The N-terminal alanine residue present in ATS7FP0 was removed to generate peptide ATS7FP7 with a reduced aliphatic index (Table 1). […] To assess the effect of a P4′ proline residue on the cleavage rate, peptide ATS7FP7 was modified to generate ATS7FP8. […] Since we also determined that ADAMTS-7 prefers arginine in P1 (Figure 1(D)), we mutated one alanine residue in the parental sequence into arginine with the aim to improve both cleavage rate and hydrophilicity, thus generating peptide ATS7FP3. […]

Row | Molecule | IC50 ([1]; ADAMTS-7 19 nM, 2 h preincubation, LTBP4S-A 5.6 μM, 17 h, read-out: IC50 (LTBP4S-A substrate)) [nM] | increase of ADAMTS-7 inhibition relative to JG23 ([1]; against LTBP4S-A) [fold] | appearance of solution upon dilution in the assay buffer (solubility) [2]
1 | O=C(NCCC[C@@H](NS(=O)(=O)c1ccc(OCc2ccc(F)cc2Cl)cc1)C(=O)NO)c1ccccc1 [EDV33] | 112 ± 14 | 5.1 | –
2 | Glu-Ala-Ala-Ala-Arg↓Ala-Glu↓Ala-Ala-Ala-Lys [ATS7FP7] | – | – | homogeneous
